CNCC[C@@H](Oc1cncc2sccc12)c1ccccc1.Cl
melting point: 68.1 °C
